Test results published in patent publication US20230023009A1, “HETEROCYCLIC COMPOUNDS AND METHODS OF USE THEREOF” (SPARCBIO LLC, priority 2020, published 2023).
Like-named read-outs stand apart in the source and are kept apart here.

Assays:
[1] = system: NCI-H358 subcutaneous xenograft tumors; experiment: NCI-H358 mouse xenograft model
Description: NCI-H358 cells were injected subcutaneously (5×10^6 cells in 0.1 mL of PBS) into the right flanks of 6-8-week-old female BALB/c nude mice and allowed to grow until the average tumor size reached 150-200 mm^3. The mice were then stratified into treatment groups of 4-8 animals and treatment initiated on Day 0. Test compound or vehicle (1% Tween 80, 2% HPMC, and 97% water) was administered orally, once daily, for 21 days. Tumor size was measured twice weekly in two dimensions using a caliper, and the volume was expressed in mm^3 using the formula: V=(a×b^2/2) where a and b are the long and short diameters of the tumor, respectively. Tumor Growth Inhibition (TGI) was calculated for each group using the formula: TGI %=(1−Ti/Vi)×100, where Ti is the mean tumor volume of the treatment group on the measurement day, and Vi is the mean tumor volume of the control group on the measurement day. Animal body weight was monitored regularly as an indicator of toxicity. […] Data points represent the group mean, and error bars represent the standard error of the mean (SEM).

[2] = molecular target: T1, hERG potassium channel (Homo sapiens, UniProt Q12809); experiment: hERG inhibition assay (manual whole-cell patch-clamp, CHO cells); assay type: cell-based
T1 construct: host or cells: CHO
T1 sequence (Q12809 whole entry): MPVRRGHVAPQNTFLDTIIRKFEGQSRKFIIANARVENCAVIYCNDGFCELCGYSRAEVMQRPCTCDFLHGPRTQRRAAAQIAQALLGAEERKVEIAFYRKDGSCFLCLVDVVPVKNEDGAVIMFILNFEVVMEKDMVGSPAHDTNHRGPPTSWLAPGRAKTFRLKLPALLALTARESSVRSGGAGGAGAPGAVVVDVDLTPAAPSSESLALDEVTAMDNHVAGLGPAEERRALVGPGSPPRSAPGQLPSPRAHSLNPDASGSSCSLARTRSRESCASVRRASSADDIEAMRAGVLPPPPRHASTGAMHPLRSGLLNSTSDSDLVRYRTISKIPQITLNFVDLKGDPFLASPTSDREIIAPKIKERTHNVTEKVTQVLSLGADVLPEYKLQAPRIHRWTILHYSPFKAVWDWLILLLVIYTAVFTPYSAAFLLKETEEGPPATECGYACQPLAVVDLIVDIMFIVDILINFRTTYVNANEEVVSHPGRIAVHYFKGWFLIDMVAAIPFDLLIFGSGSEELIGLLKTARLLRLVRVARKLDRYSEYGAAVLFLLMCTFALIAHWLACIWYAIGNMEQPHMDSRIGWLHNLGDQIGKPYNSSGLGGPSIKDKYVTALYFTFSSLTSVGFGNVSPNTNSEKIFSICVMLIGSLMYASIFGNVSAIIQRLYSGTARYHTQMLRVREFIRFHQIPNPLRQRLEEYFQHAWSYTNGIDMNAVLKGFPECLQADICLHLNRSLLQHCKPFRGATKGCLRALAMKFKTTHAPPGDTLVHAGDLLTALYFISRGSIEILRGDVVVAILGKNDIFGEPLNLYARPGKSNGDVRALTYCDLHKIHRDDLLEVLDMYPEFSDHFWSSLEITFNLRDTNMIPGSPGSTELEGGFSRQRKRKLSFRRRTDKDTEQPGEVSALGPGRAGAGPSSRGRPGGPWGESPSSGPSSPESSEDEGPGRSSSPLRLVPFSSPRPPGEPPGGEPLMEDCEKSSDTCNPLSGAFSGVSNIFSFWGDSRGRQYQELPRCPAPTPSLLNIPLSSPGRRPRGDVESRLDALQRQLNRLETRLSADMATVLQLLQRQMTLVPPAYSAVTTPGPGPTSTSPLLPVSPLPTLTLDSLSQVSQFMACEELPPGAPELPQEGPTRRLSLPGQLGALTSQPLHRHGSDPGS
Description: Compounds were tested for the potential to inhibit the hERG potassium channel. It is known that inhibition of the hERG channel may cause QT prolongation and increase the risk of cardiac arrhythmias. Therefore, to avoid cardiotoxicity, a compound with relatively low or no inhibition of the channel is desirable. Manual whole-cell patch-clamp recordings were made in Chinese hamster ovary (CHO) cells stably expressing hERG channels (B'Sys, Switzerland). Standard intracellular and bath solutions for hERG current detection were used. Cells were exposed to test compounds at 6 concentrations prepared by 1:3 serial dilution of compounds from a top starting concentration of 30 μM. Currents were elicited by stepping the voltage from a holding potential of −80 mV to −50 mV (20 ms) and then stepping to +40 mV (4 s). A subsequent step to −50 mV (4 s) was used to elicit a tail current which was used for data analysis. Current recordings were made in triplicate using three different cells. Data normalized to the activity in vehicle (0.1 or 0.3% DMSO) were fit with 4-parameter non-linear regression, and IC50 values were determined from the dose-response curves, using GraphPad Prism software.

[3] = system: NCI-H1373; experiment: Cell proliferation assay panel (Cell Titer-Glo, 72 hr); assay type: cell-based; conditions: Homo sapiens
Description: (§1) Potency of compounds was determined in cell proliferation assays in a panel of cancer cell lines. Cells were seeded in 384-well plates (Corning, Cat. #3765) at specified densities in 40 μL of culture medium and incubated overnight at 37° C. in a 5% CO2 incubator (culture conditions). With a robotic dispenser, serially diluted test compounds were added in a volume of 20 nL DMSO to wells in the culture plate to achieve the final desired concentrations of test compounds, and the cells were further incubated in culture conditions for 72 hr. The assay was terminated by addition of 25 μL of Cell Titer-Glo reagent (Promega, Madison, Wis.) to each well. Contents were mixed, the plate was incubated for 10 min at room temperature and luminescence was measured. The IC50 value of each test compound was calculated with XLFit curve fitting software. Results are shown in Table 4. ‘+++’ indicates IC50 values≤300 nM, ‘++’ indicates IC50 values between 300 nM-3 μM, and ‘+’ indicates IC50 values≥3 μM.

[4] = system: MIA PaCa-2; experiment: as above; assay type: cell-based; conditions: Homo sapiens, MIA PaCa-2, 72 h
Description: as §1

[5] = system: SW1573; experiment: as above; assay type: cell-based; conditions: Homo sapiens
Description: as §1

[6] = system: MIA PaCa-2 subcutaneous xenograft tumors
Description: MIA PaCa-2 cells were injected subcutaneously (10×10^6 cells in 0.2 mL of PBS with Matrigel (1:1)) into the right flanks of 6-8-week-old female BALB/c nude mice and allowed to grow until the average tumor size reached 150-200 mm^3. The mice were then stratified into treatment groups of 8 animals and treatment initiated on Day 0. Test compound or vehicle (1% Tween 80, 2% HPMC, and 97% water) was administered orally, once daily, for 14 days with an observational phase to monitor tumor growth post-treatment. Tumor size was measured twice weekly in two dimensions using a caliper, and the volume was expressed in mm^3 using the formula: V=(a×b^2/2) where a and b are the long and short diameters of the tumor, respectively. Tumor Growth Inhibition (TGI) was calculated for each group using the formula: TGI %=(1−Ti/Vi)×100, where Ti is the mean tumor volume of the treatment group on the measurement day, and Vi is the mean tumor volume of the control group on the measurement day. Animal body weight was monitored regularly as an indicator of toxicity. […] Data points represent the group mean, and error bars represent the standard error of the mean (SEM).

[7] = system: Phosphorylation of ERK in NCI-H358 cells; experiment: pERK assay (Method II, homogeneous TR-FRET); assay type: cell-based; conditions: Homo sapiens, 4 hrs compound treatment
Description: Method II. Phosphorylation of ERK was assessed by a homogeneous TR-FRET assay (Advanced phospho-ERK (Thr202/Tyr204) cellular kit; Cat. #64AERPEH, Cisbio). In brief, NCI-H358 cells were seeded in a 384-well culture plate at a density of 6000 cells in 40 μL medium/well and grown overnight at 37° C. and 5% CO2. Each test compound was dosed in duplicate in a 10-dose 3-fold titration starting at 10 μM or 2 μM. The culture plate was then incubated for 4 hrs in the incubator. At the end of the compound treatment, the medium was removed, 35 μL of lysis buffer was added to each well, and the plate was agitated on a plate shaker for 40 mins at 4° C. An antibody cocktail of phospho-ERK1/2 Eu Cryptate antibody and Phospho-ERK1/2 d2 antibody was prepared by separately diluting the antibodies 20-fold with detection buffer and then mixing them together. 3.4 μL of antibody cocktail was dispensed to each well of an empty 384-well white ProxiPlus assay plate (Perkin Elmer), and the plate briefly centrifuged. 13.6 μL of cell lysate was then added to the antibody-containing wells, and the plate was briefly centrifuged and then incubated 2 hrs at room temperature. The plate was read on a fluorescence plate reader (Envision2104, Perkin Elmer), with an excitation wavelength of 337 nm and emission wavelengths of 615 nm and 665 nm. The IC50 value of each test compound was calculated with XLFit curve fitting software. Results are shown in Table 6. ‘+++’ indicates IC50 values≤300 nM, ‘++’ indicates IC50 values between 300 nM-3 μM, and ‘+’ indicates IC50 values≥3 μM.

[8] = molecular target: KRAS G12C protein (Homo sapiens, UniProt P01116, G12C); experiment: Nucleotide exchange assay (Method III, KRAS G12C/Raf-RBD TR-FRET); assay type: biochemical; conditions: SOS1-mediated exchange of GDP for GTP, 18 hr compound incubation
Chain of KRAS G12C protein (P01116 1-188 isoform P01116-2 G12C): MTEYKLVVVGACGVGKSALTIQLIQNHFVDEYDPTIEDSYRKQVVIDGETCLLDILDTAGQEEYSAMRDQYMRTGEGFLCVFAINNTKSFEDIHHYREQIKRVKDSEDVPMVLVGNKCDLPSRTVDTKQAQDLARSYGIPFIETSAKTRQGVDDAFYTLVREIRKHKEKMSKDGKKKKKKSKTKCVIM
Method in brief: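 His-tagged GDP-bound KRAS G12C (25 nM in 2× mix) was preincubated with an 11-point, 3-fold compound series for 18 hr at 23° C, then SOS1/GTP was added for 1 hr. FLAG-Raf-RBD with Tb-anti-FLAG/D2-anti-His followed for 2 hr at room temperature. TR-FRET was read, and IC50 was obtained by non-linear regression.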

Compound: C=C(F)C(=O)N1CCN(c2nc(OC[C@@H]3CCCN3C)nc3c2CO[C@@H](c2cccc4cccc(Cl)c24)C3)C[C@@H]1CC#N (single isomer, unassigned) [43 (Isomer B)]
- TGI ([1]; 10 mg/kg orally once daily, Day 20 after treatment start): 15.1%
- TGI ([1]; 30 mg/kg orally once daily, Day 20 after treatment start (day not restated for comparators)): 43.6%
- TGI ([1]; 100 mg/kg orally once daily, Day 20 after treatment start): 94.6%
- tolerability (from body weight) ([1]; 10, 30 and 100 mg/kg orally once daily for 21 days): well-tolerated
- weight loss ([1]; none of the mice greater than this, 10, 30 and 100 mg/kg once daily): ≤ 10%
- IC50 [2]: 3.61 µM
- IC50 [3]: 300 to 3000 nM
- IC50 [4]: ≤ 300 nM
- IC50 [5]: ≥ 3000 nM
- TGI ([6]; 10 mg/kg orally once daily, Day 14 after treatment start): 9.0%
- TGI ([6]; 30 mg/kg orally once daily, Day 14 after treatment start (day not restated for comparator)): 75.5%
- TGI ([6]; 100 mg/kg orally once daily, Day 14 after treatment start): 94.6%
- tolerability (from body weight) ([6]; orally once daily for 14 days): well-tolerated
- IC50 [7]: ≤ 300 nM
- IC50 [8]: ≤ 300 nM
